We go through two compounds from PMC10454726 (International Journal of Molecular Sciences, 2023).

Experiment [1] has as its system streptozotocin-induced diabetic rats. Put plainly: Animal weight, food and water consumption in streptozotocin-induced diabetic rats. The experiment is classed as in vivo, Wistar rat. The procedure:
Six female (three for each compound: FC-114 and FC-122) (220 ± 10 g, for the acute toxicity assay) and forty male (215 ± 20 g, for the pharmacologic study) albino Wistar rats were acquired from the Isolation and Animal Facility Unit, Facultad de Estudios Superiores Cuautitlán (FESC), Universidad Nacional Autónoma de México (UNAM). They were kept in standard polypropylene boxes under controlled temperature (24 ± 4 °C) on a 12 h light/dark cycle and provided conventional food (formula 5001, Rat Chow) and purified water ad libitum. […] At the end of the experiment, the animals were taken to the humanitarian endpoint by the intraperitoneal (ip) administration of 75 mg/kg of sodium pentobarbital to perform a necropsy in the bioterium of FESC, UNAM. During the necropsy, blood serum was extracted to quantify glucose, triacylglycerides, cholesterol, and insulin. The study was conducted based on the guidelines of the Declaration of Helsinki and approved by the Institutional Review Board: Internal Committee for the Care and Use of Experimentation Animals (CICUAE, according to the initials in Spanish, C23_02 on March 2023) of the FESC UNAM (Mexico). It complies with the Mexican norm for this matter (NOM-062-ZOO-1999, Technical Specifications for the Production, Care, and Use of Laboratory Animals, SAGARPA), as well as the Guide for the Care and Use of Laboratory Animals of the National Research Council and National Institutes of Health (NIH Publications No. 8023, revised 1978).
After a week of acclimation, 35 male Wistar rats were given a single intraperitoneal dose of STZ (Sigma Chemical Co. Toluca, Estado de México, Mexico) at a dosage of 45 mg/kg of body weight, after fasting for 12 h overnight with free access to water. To prevent initial drug-induced hypoglycemia mortality, these animals were given a 10% sucrose solution 24 h after administration. STZ was dissolved in 0.1 M of sodium citrate buffer (pH 4.5) and administered in a final volume of 5 mL/kg. A week after STZ injection, diabetes in streptozotocin rats was confirmed by measuring fasting blood glucose (by glucose oxidase method). Animals with a blood glucose (tail vein) above 126 mg/dL were considered diabetic and used for the experiment to create groups 2, 3, 4, 5, 6, and 7 [1, 13]. Blood glucose levels were measured using a glucometer (Accu-Chek Active, Roche, Mannheim, Germany) and reactive strips (Accu-Chek Active Glucose test strips, Roche). The presence of hyperglycemia and insulin level confirmed a model very similar to T2D in humans. For the pharmacological study, the final number of animals was 35 male rats, with 3 rats being sacrificed during the treatment stage. One was administered with FC-114 and two with acarbose. The first rat was damaged during oral glucose administration in the OGTT at week 5, and the other rats had gastrointestinal complications in week 7.
(§1) The diabetic animals in group 2 (untreated) were given 4% v/v aqueous EtOH solution (vehicle of treatments) in a volume of 6.5 mL/kg body weight. The other groups (3–7) received different treatments for 14 days (weeks 5 to 7). […] All of the treatments were at equimolar doses of PIO and adjusted to the weekly weight of each rat. […] The commercial PIO tablet (30 mg) was crushed in 7.5 mL of vehicle and given to each animal in 4.0 mg/mL of suspension. The FC-114 and FC-122 suspensions were created at 6.2 and 6.0 mg/mL, respectively. The commercial acarbose tablet (50 mg) was crushed in 7.5 mL of the vehicle and given to each animal in a suspension of 6.6 mg/mL. Each suspension was used within 2 days of its preparation, and the administration volume was near to 2.5 mL for each rat.

For experiment [2] the test system is unchanged. Description: Serum determinations (insulin, cholesterol) in streptozotocin-induced diabetic rats. To be noted: 14 days, FC-114 51.3 mg/kg/day. The experiment is classed as in vivo, Wistar rat. On the procedure: To obtain serum from each rat under anesthesia, a 10 mL blood sample was taken via cardiac puncture of the exposed heart. After being left at room temperature for 10 min, the blood samples were centrifuged at 2500 rpm (1200× g) for 10 min to obtain the serum. The resulting serum was then frozen at −70 °C until needed. Prior to usage, the serum samples were thawed at room temperature.
as §1
The blood determinations were carried out using different kits: glucose (1001191, Spinreact, Girona, Spain, 1045), TAG (41032, Spinreact, LIQ557), insulin (RAB09A-1EA-KC, Sigma, 11092020), total cholesterol (41020, Spinreact, LIQ384), and HDL cholesterol (1001095, Spinreact, H166). Mathematically, the c-LDL cholesterol was determined by subtracting the HDL fraction from the total cholesterol.

Another experiment deals with PTP1B. Set-up: method as in PMID 34299651. As to conditions: cited from earlier work.
In the next experiment the target is T1, PTP1B1–400 (Homo sapiens, UniProt P18031).
T1 construct: we performed an enzyme kinetic assay for PTP1B1–400
T1 sequence (P18031 1-400): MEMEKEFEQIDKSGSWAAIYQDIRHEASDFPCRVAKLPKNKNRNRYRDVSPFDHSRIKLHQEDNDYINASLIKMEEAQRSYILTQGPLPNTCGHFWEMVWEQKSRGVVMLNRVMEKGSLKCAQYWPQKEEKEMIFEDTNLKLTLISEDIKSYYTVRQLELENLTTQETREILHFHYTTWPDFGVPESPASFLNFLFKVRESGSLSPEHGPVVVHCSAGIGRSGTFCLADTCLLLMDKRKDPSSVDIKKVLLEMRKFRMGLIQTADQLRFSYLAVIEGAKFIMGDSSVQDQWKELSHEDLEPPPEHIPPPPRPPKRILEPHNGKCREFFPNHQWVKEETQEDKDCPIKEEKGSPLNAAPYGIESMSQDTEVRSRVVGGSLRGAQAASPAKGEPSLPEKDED
Put plainly: Enzyme kinetic assay for PTP1B1–400 (pNPP substrate). The experiment is classed as biochemical. From the text:
As pointed out in this paper’s introduction, we have reported the PTP1B inhibitory activity of FC-114 and FC-122 [53]. […] Nevertheless, the inhibition type of FC-122 remained unknown to date. Therefore, we performed an enzyme kinetic assay for PTP1B1–400 [59, 60, 61] using p-nitrophenyl phosphate (pNPP) as substrate at different concentrations as well as the inhibitor. Figure 2C depicts the double reciprocal plot of Lineweaver-Burk, showing the effect of FC-122 on the PTP1B activity.
The kinetic studies for PTP1B and α-glucosidase were carried out under the same conditions described in the references.

Setting [3] is: after 7 days of treatment (weeks 5 to 6).

Each structure is given as a SMILES string. pKi: −log10 of the molar value.

With `CC1(C)c2[nH]c3ccc(C(F)(F)F)cc3c2C[C@]2(C)[C@H]3C(=O)C=C4[C@@H]5C[C@@](C)(C(=O)O)CC[C@]5(C)CC[C@@]4(C)[C@]3(C)CC[C@@H]12` [FC-114], the “animal weight compared to the untreated group (T2D)” value in experiment [1] (14 days of treatment, weeks 5 to 7) was “difference in weight”. Besides, in experiment [1] (setting [3]), the food intake entry is listed as “maintained their increased food consumption”. The food intake result in experiment [1] (after 14 days of treatment (weeks 6 to 7)) was “tended to decrease toward normal levels”. In experiment [2], the HDL levels result is reported as “without affecting”, the “calculated LDL cholesterol” value is listed as “decreased”, the serum insulin levels entry was “dramatically increasing trend” and the serum total cholesterol entry is on record as “decreased”. Further, in the experiment on PTP1B, the “Inhibition type (PTP1B)” value was “non-competitive” and the pKi (usually the Ki on a negative log10 scale, so that one unit is a factor of ten) is 5.41.

On to `Cc1ccc(-n2ncc3c2C(C)(C)[C@@H]2CC[C@]4(C)[C@H](C(=O)C=C5[C@@H]6C[C@@](C)(C(=O)O)CC[C@]6(C)CC[C@]54C)[C@@]2(C)C3)cc1` [FC-122], for which, on PTP1B1–400 (Lineweaver-Burk plot), the “Inhibition type (PTP1B)” value is reported as “uncompetitive”. The pKi at PTP1B1–400 (substrate pNPP) was 6.36. Further, in experiment [1] (setting [3]), the food intake result is given as “reduced food intake to near-normal levels”. In addition, the water consumption entry in experiment [1] (after 14 days of administration) is “decreased water consumption compared to acarbose and FC-114”.
